Measurements reported in patent US5635495A, “Pyrimidine bisphosphonate esters and (alkoxymethylphosphinyl)alkyl phosphonic acids as anti-inflammatories” (The Upjohn Company, priority 1995, dated 1997).

Tests used:
[1] = tested on: mBSA-induced DTH granuloma (DTH GRA) lesion; experiment: Delayed Type Hypersensitivity Granuloma Assay (DTH GRA) model for inflammation; format: in vivo, mouse; settings: for % Inhibition Dry Weight: granuloma dry weight; for % Inhibition Dry Weight / % Inhibition Wet Weight: excised after nine days; for % Inhibition Wet Weight: granuloma wet weight
Source text: Compounds of Formula 3 and a compound of Formula 2 have been tested in a Delayed Type Hypersensitivity Granuloma Assay (DTH GRA) model for inflammation. This assay is described by Dunn, C. J. et al., "Development of a delayed-type hypersensitivity granuloma model in the mouse for the study of chronic immune-mediated inflammatory disease," Agents and Actions, 27, 3/4 (1989) and "Murine Delayed-Type Hypersensitivity Granuloma," Int. J. Immunopharmc., 12, 8, 899-904 (1990).
Briefly, mBSA-sensitized mice have a DTH granuloma (DTH GRA) lesion induced by subcutaneously implanting a mBSA-soaked filter which is excised after nine days. Compounds are administered to the mice to determine their effect on the lesions. The results are recorded as percent inhibition. […] Inhibition of 10 to 20% is considered to indicate anti-granuloma activity. Greater than 30% inhibition is good activity.
The compound of Formula 2 tested was 1-((ethoxy-methylphosphinyl))-4-(3-methyl-6-phenyl-4(3H)-pyrimidinone-2-yl)-butane phosphonic acid diethyl ester, Example 16 and the DTH GRA data obtained for this compound was 44.4%.

calcium channel = experiment: in vitro model which identifies calcium channel blocking activity (KCl-induced calcium influx, INDO-1, human dermal fibroblasts); format: cell-based; settings: 40 mM KCl, human dermal fibroblasts CRL 1445
Experimental: These compounds were also tested in an in vitro model which identifies calcium channel blocking activity. In this test, adherent human dermal fibroblasts (CRL 1445, ATCC, Bethesda, Md.) were allowed to attach to glass cover slips placed in 6 well culture plates. Cultures were maintained in DMEM supplemented with antibiotics and 10% fetal bovine serum (FBS) until confluent.
The fibroblasts were washed once with Dulbecco's phosphate buffered saline to remove the culture medium and FBS. The calcium probe, INDO-1 AM ([…]) in RPMI 1640 without phenol red and supplemented with 10 mM hepes and 2 mM glutamine was added to the cells for 1 hour at 37° C. The cells were washed twice with RPMI1640 and remained in this medium until calcium measurements were obtained with the Meridian ACAS digital image microscope.
The cover slip with the attached fibroblasts was placed in a chamber with 1 ml of RPMI on the microscope stage, and maintained at 37° C. The cells were exposed to a laser beam set at 310 nm and fluorescent emission was measured at 485 nm and 405 nm. Baseline resting calcium levels of the fibroblasts were measured for 30 seconds after which 40 mM KCl was added to the medium in the holder. Data was collected at 40 second intervals for a total of 300 to 400 seconds. Maximal calcium influx is usually reached within 40 seconds after the addition of KCl, and begins to slowly decrease to ~50% of the maximal level. The intracellular calcium concentrations remain elevated for at least 400 seconds.
In order to measure the inhibitory effect of the test compounds on changes in intracellular calcium, the compound was added to the cells maintained in RPMI medium for a minimum of 20 minutes before the fibroblast membranes were depolarized with KCl as outlined above. The mean increase in intracellular calcium was then compared to control fibroblasts which had been pretreated for similar lengths of time with DMSO and exposed to KCl. A calcium standard curve was obtained on the day of the experiments in order to generate absolute intracellular calcium concentrations if needed.
Two known calcium channel blockers, D600 and nifedipine were also tested to compare the relative efficacies of the "standard" compounds with the novel diphosphonates. For instance, D600 (available from the Sigma Co., St. Louis, Mo.) inhibited calcium influx into a cell by 83 to 100% at 10^-5 molar concentration. The Control is a sub-structure of Example 9 (k) not having the bisphosphonate teralkyl ester portion.

## CCOP(C)(=O)C(CCc1nc(-c2ccccc2)cc(=O)n1C)P(=O)(OCC)OCC (stereo not drawn) [Example 16, 1-(Ethoxymethylphosphinyl)-3-(3-methyl-6-phenyl14(3H)-pyrimidinone-2-yl)-propane phosphonic acid diethyl ester]
[1]; dose, route and wet/dry weight not given
  DTH GRA percent inhibition: 44.4%

## Cc1cc(N2CCOCC2)nc(NCC(P2(=O)OCC(C)(C)CO2)P2(=O)OCC(C)(C)CO2)n1 [Ex. 21 (c), (2-((4-(4-morpholinyl)-6-methyl-2-pyrimidinyl)amino)ethylidene)bis(2,2'-(5,5-dimethyl-2,2'-dioxide-1,3,2-dioxaphosphorphinane))]
[1]; 10 mg/kg PO
  % Inhibition Dry Weight: 62.5%
  % Inhibition Wet Weight: 68.6%

## Cc1cc(Oc2ccc(Br)cc2Br)nc(NCC(P2(=O)OCC(C)(C)CO2)P2(=O)OCC(C)(C)CO2)n1 [Ex. 19 (d), (2-((4-(2-,4-dibromophenoxy)-6-methyl-2-pyrimidinyl)amino)ethylidene)bis(2,2'(5,5-dimethyl-2,2'-dioxide-1,3,2-dioxaphosphorphinane))]
[1]; 10 mg/kg PO
  % Inhibition Dry Weight: 25.0%
  % Inhibition Wet Weight: 12.1%

## COc1cc(C)nc(NCC(P2(=O)OCC(C)(C)CO2)P2(=O)OCC(C)(C)CO2)n1 [Ex. 26 (l), (2((4-(methyl)-6-methoxy-2-pyrimidinyl)amino)ethylidene)bis(2,2'-(5,5-dimethyl-2,2'-dioxide-1,3,2-dioxaphosphorphine))]
[1]; 10 mg/kg PO
  % Inhibition Dry Weight: 44.8%
  % Inhibition Wet Weight: 41.9%

## CCOP(=O)(OCC)C(CNc1nc(C)cc(Oc2ccc(Cl)cc2Cl)n1)P(=O)(OCC)OCC [(f), (2-((4-2,4-dichlorophenoxy-6-methyl-2-pyrimidinyl)amino)ethylidene)bisphosphonic acid tetraethyl ester]
[1]; 10 mg/kg PO
  % Inhibition Dry Weight: 39.7%
  % Inhibition Wet Weight: 45.9%

## CCOP(=O)(OCC)C(CNc1nc(C)cc(Oc2ccc(Cl)cc2Cl)n1)P(=O)(OCC)OCC [Ex. 25 (k), (2-((4-(2,4-dichlorophenoxy)-6-methyl-2-pyrimidinyl)amino)ethylidene)bisphosphonic acid, tetraethyl ester]
[1]; 100 mg/kg, administered sc
  % Inhibition Dry Weight: 39.6%
  % Inhibition Wet Weight: 40.5%
Calcium channel; 10^-5 M
  % Inhibition Mean SD (calcium channel activity): 92 ± 5%
Calcium channel; 10^-6 M
  % Inhibition Mean SD (calcium channel activity): 75 ± 9%
Calcium channel; 10^-7 M
  % Inhibition Mean SD (calcium channel activity): 35 ± 19%

## Cc1cc(Oc2ccc(F)cc2F)nc(NCC(P2(=O)OCC(C)(C)CO2)P2(=O)OCC(C)(C)CO2)n1 [Ex. 18 (b), (2-((4-(2,4-difluorophenoxy)-6-methyl-2-pyrimidinyl)amino)ethylidene)bis(2,2'-(5,5-dimethyl-2,2'-dioxide-1,3,2-dioxaphosphorphinane))]
[1]; 10 mg/kg PO
  % Inhibition Dry Weight: 58.3%
  % Inhibition Wet Weight: 70.6%

## Cc1cc(Oc2ccc(C#N)cc2)nc(NCC(P2(=O)OCC(C)(C)CO2)P2(=O)OCC(C)(C)CO2)n1 [Ex. 20 (e), (2-((4-(4-cyanophenoxy)-6-methyl-2-pyrimidinyl)amino)ethylidene)bis(2,2'-(5,5-dimethyl-2,2'-dioxide-1,3,2-dioxaphosphorphinane))]
[1]; 10 mg/kg PO
  % Inhibition Dry Weight: 41.8%
  % Inhibition Wet Weight: 27.4%

## Cc1cc(Oc2c(F)cccc2[N+](=O)[O-])nc(NCC(P2(=O)OCC(C)(C)CO2)P2(=O)OCC(C)(C)CO2)n1 [Ex. 17 (a), (2-((4-(2-fluoro-6-nitrophenoxy)-6-methyl-2-pyrimidinyl)amino)ethylidene)bis(2,2'-(5,5-dimethyl-2,2'-dioxide-1,3,2-dioxaphosphorphinane))]
[1]; 10 mg/kg PO
  % Inhibition Dry Weight: 39.0%
  % Inhibition Wet Weight: 47.9%

## Cc1cc(Oc2ccc(Cl)cc2Cl)nc(N)n1 [Control, reference compound]
Calcium channel; 10^-5 M
  % Inhibition Mean SD (calcium channel activity): 12%
